The results in this text go back to patent publication US5051499A, “Novel nucleoside-phospholipid conjugate” (Toyo Jozo Kabushiki Kaisha, priority 1986, dated 1991).

The test system of the assay is P-388 leukemic cells. The experiment in a line: Antitumor activity against mouse leukemia P-388, increase in life span (ILS). The format is in vivo. More on the design: dose or concentration left out as unconfirmed. The following applies: P388, ip, 120 h, Table 2, i.p., once a day for 5 days, BDF1 mice. As to the method:
Antitumor activity against mouse leukemia P-388 carcinoma is shown in the ensuring examples, according to the following list of specifications:
2. Animal: BDF1 mice, age 5 weeks, male, Charles River Inc., 5 mice in an experimental group at 7 control mice.
3. Tumor cells: P-388 leukemic cells; 1×10^6 /0.2 ml are inoculated intraperitoneally in BDF1 mice of the experimental group.
4. Preparation of samples and administration of drugs:
Samples are suspended in Tris-HCl saline solution by sonification. 0.1 ml/10g body weight is administered.
Administration: starting one day after inoculation of tumor cells, once a day for 5 days intraperiotoneally.
5. Increase in life span (ILS) is calculated by the following equation: [formula]
Average survival date in control group is 7.86 days (7.57-7.93 days).
For the compound `CCCCCCCCCCCCCCCCOCC(COP(=O)(O)OC[C@H]1O[C@@H](n2cc(F)c(N)nc2=O)[C@@H](O)[C@@H]1O)OCCCCCCCCCCCCCCCC` (stereo partly drawn) [cetyl cetyl AraFC], the ILS is 152%.
The compound `CCCCCCCCCCCCCCCCOCC(COP(=O)(O)OC[C@H]1O[C@@H](n2cc(F)c(=O)[nH]c2=O)[C@H](O)[C@@H]1O)OCCCCCCCCCCCCCCCC` (stereo partly drawn) [cetyl cetyl FUR] gave an increase in life span (ILS) of 127%.
`CCCCCCCCCCCCCCCCOCC(COP(=O)(O)OCC1=C[C@@H](n2cnc3c(N)ncnc32)[C@H](O)[C@@H]1O)OCCCCCCCCCCCCCCCC` (stereo partly drawn) [cetyl cetyl NepA]: the ILS was found to be 34.9%.
The figure for `CCCCCCCC/C=C\CCCCCCCCOCC(COP(=O)(O)OC[C@H]1O[C@@H](n2cc(F)c(N)nc2=O)[C@@H](O)[C@@H]1O)OCCCCCCCC/C=C\CCCCCCCC` (stereo partly drawn) [oleyl oleeyl AraFC] is 148%; for `CCCCCCCC/C=C\CCCCCCCCOCC(COP(=O)(O)OC[C@H]1O[C@@H](n2cc(F)c(=O)[nH]c2=O)[C@H](O)[C@@H]1O)OCCCCCCCC/C=C\CCCCCCCC` (stereo partly drawn) [oleyl oleyl FUR] it is 76%; for `CCCCCCCC/C=C\CCCCCCCCOCC(COP(=O)(O)OCC1=C[C@@H](n2cnc3c(N)ncnc32)[C@H](O)[C@@H]1O)OCCCCCCCC/C=C\CCCCCCCC` (stereo partly drawn) [oleyl oleyl NepA] it is 26%.
Then `CCCCCCCCCCCCCCCCCCOCC(COP(=O)(O)OC[C@H]1O[C@@H](n2cc(F)c(N)nc2=O)[C@@H](O)[C@@H]1O)OCCCCCCCCCCCCCCCCCC` (stereo partly drawn) [stearyl stearyl AraFC], with 61%; and `CCCCCCCCCCCCCCCCCCOCC(COP(=O)(O)OC[C@H]1O[C@@H](n2cc(F)c(=O)[nH]c2=O)[C@H](O)[C@@H]1O)OCCCCCCCCCCCCCCCCCC` (stereo partly drawn) [stearyl stearyl FUR], with 31%.
Then `CCCCCCCCCCCCCCCCCCOCC(COP(=O)(O)OCC1=C[C@@H](n2cnc3c(N)ncnc32)[C@H](O)[C@@H]1O)OCCCCCCCCCCCCCCCCCC` (stereo partly drawn) [stearyl stearyl NepA], with 31%.
